The text below walks through data of publication PMC12655733, “Design, Synthesis and Evaluation of the First 2-Alkynyl(aza)indole ^18F Probe Targeting α-Synuclein Aggregates” (Pharmaceuticals, 2025).

What is called Kd is the concentration at which binding is half-saturated. A word on the Ki: it is the equilibrium dissociation constant of an inhibitor or competing ligand from its target. As a reminder, the logD is the decadic logarithm of the distribution of all forms, ionised or not, between an organic phase and buffer at a given pH. A higher logD goes with a more lipophilic compound.

One series addresses α-syn in MSA tissues. Also noted: method as in PMID 38352848. The following applies: cited from earlier work.
For series [1], the target named is T1, α-syn fibrils (Homo sapiens, UniProt P37840).
T1 construct: made in house; host or cells: Escherichia coli BL21(DE3)
The settings on record: cited from earlier work; for Kd: read-out: Kd for α-syn.

For another series, the target named is Aβ fibrils. The settings on record: cited from earlier work; for Kd: read-out: Kd for Aβ fibrils.
A further series concerns the target tau fibrils. The settings on record: cited from earlier work.
The target in series [2] is T1, α-syn fibrils. The series can be described thus: Direct fluorescence titration on α-syn fibrils: Kd and Bmax. It is filed as binding. From the text: (§1) In view of the interesting properties of compounds 33–39, we decided to switch to azaindole structures and to study the impact of the position of the nitrogen atom in the 6-membered ring on binding to fibrils. At this step we measured, in addition to the Ki values, the direct binding of each compound to fibrils through the fluorescence in the fraction bound to fibrils, which allowed us to determine the affinity values (Kd, Table 1). […] We therefore prepared a fluorinated derivative of compound 43, i.e., 45.
(§2) Fresh solutions of each tested compound (2.5 mM in DMSO) were diluted in PBS pH 7.4 at concentrations ranging from 0.5 nM to 5 µM in the presence or absence of α-syn, Aβ1-42, or Tau fibrils (200 nM, 500 nM, or 200 nM, respectively) in a final volume of 2 mL. After 1 h incubation at room temperature, the binding of each compound to α-syn, Aβ1-42, or Tau fibrils was assessed by fluorescence measurements using the appropriate excitation/emission wavelengths (i.e., those yielding the highest fluorescence ratio between fibril-bound and free compound). For any given concentration of compound added to the fibrils, the concentrations of compound bound to the fibrils and free in solution were determined on the basis of the measured fluorescence. Since at each point of the titration: Fm = FB × B + FF × (T − B) where Fm is the measured fluorescence of the compound in the presence of fibrils at a given compound concentration T, FB is the specific molar fluorescence of the bound compound, FF is the specific molar fluorescence of the free compound, and B is the concentration of compound bound to the fibrils at any point of the titration. FF was determined by measuring the fluorescence of known compound concentrations in the absence of fibrils. FB was determined by measuring the maximum fluorescence of known compound concentrations upon saturation with α-syn, Aβ1-42, or Tau fibrils.
(§3) Therefore, at each point of the titration, the concentration of bound compound B could be determined and was B = (Fm − FF × T)/FB − FF. The B values thus determined versus the respective concentrations of free compound were analyzed by fitting to the Michaelis-Menten equation.

Series [3] has as its target T1, α-syn fibrils. As to the kind of experiment: Inhibition of thioflavin T binding to α-syn fibrils (fluorescence competition), Ki determination. The settings on record: calculated from IC50, competition with ThT 500 nM, fibrils 200 nM, mean ± SD of 3 experiments. As for the experimental part: (§4) Wild-type α-syn and Aβ1-42 were expressed in the Escherichia coli strain BL21(DE3) (Stratagene, La Jolla, CA, USA) and purified as described. […] For the Aβ1-42 peptide, the concentration was determined by a fluorometric method using the reactive compound fluorescamine (Sigma, San Jose, CA, USA) that reacts with primary amino groups to form a fluorescent product. The human Tau protein (isoform h2N4RTau) was expressed in the pET11d vector in the Escherichia coli strain BL21(DE3) (Stratagene, La Jolla, CA, USA) and purified as described.
(§5) For assembly into fibrils, α-syn was incubated in 50 mM Tris-HCl, pH 7.5, 150 mM KCl at 37 °C under continuous shaking for 4 days. Lyophilized Aβ1-42 was dissolved in 1,1,1,3,3,3-hexafluoro-2-propanol (HFIP) at a concentration of 0.2 mg/mL and incubated for 24 h at 37 °C to achieve complete solubilization. HFIP was evaporated under a nitrogen stream to obtain a dry film. To start assembly into fibrils, the dry peptide was resuspended in PBS pH 7.4, 10% (v/v) DMSO and incubated at 37 °C without shaking for 3 days. The Tau protein was assembled in fibrils in a PBS buffer containing 1 mM of DTT in the presence of 1/12 heparin (v/v) at 37 °C under shaking. […] Protein fibrils were systematically examined by transmission electron microscopy (TEM) in a Jeol 1400 transmission electron microscope following adsorption onto carbon-coated 200 mesh grids and negative staining with 1% uranyl acetate. The images were recorded with a Gatan Orius CCD camera (Gatan, Pleasanton, CA, USA). Finally, the percentage of α-syn or Aβ1-42 aggregated into fibrils was assessed by pelleting fibrils at 40,000× g for 20 min and by determining the concentration of soluble protein/peptide remaining in the supernatant.
(§6) The samples were incubated for 1 h at room temperature to achieve complete equilibration.

Series [4] has as its target T2, Aβ1-42 fibrils (Homo sapiens, UniProt P05067).
T2 construct: Wild-type α-syn and Aβ1-42 were expressed; made in house; host or cells: Escherichia coli BL21(DE3)
The series can be described thus: Direct fluorescence titration on Aβ1-42 fibrils: Kd and Bmax. Type of series: binding. The settings on record: for Kd: direct assay on fibrils, mean ± SD of 3 experiments, read-out: Kd Aβ.
Description: as §1, §2, §3

For series [5], the system named is Aβ1-42 fibrils. The description is as above. Type of series: binding. The settings on record: from Kd values.
Description: as §1, §2, §3

Series [6] addresses T2, Aβ1-42 fibrils. The series can be described thus: Inhibition of thioflavin T binding to Aβ1-42 fibrils (fluorescence competition), Ki determination. The settings on record: calculated from IC50, competition with ThT 500 nM, fibrils 500 nM, mean ± SD of 3 experiments; read-out: Ki Aβ. As for the experimental part:
as §4, §5, §6

Series [7] has as its target T3, Tau fibrils (isoform h2N4RTau) (Homo sapiens, UniProt P10636).
T3 construct: made in house; host or cells: Escherichia coli BL21(DE3), pET11d vector
The series can be described thus: Inhibition of thioflavin T binding to Tau fibrils (fluorescence competition), Ki determination. The following applies: calculated from IC50, competition with ThT 500 nM, fibrils 200 nM, mean ± SD of 3 experiments. As for the experimental part:
as §4, §5, §6

Series [8] addresses T3, Tau fibrils (isoform h2N4RTau). As to the kind of experiment: Direct fluorescence titration on Tau fibrils: Kd and Bmax. Type of series: binding.
Description: as §1, §2, §3

The nature of series [9]: Octanol–water partition coefficient at pH 7.4 (LogD). It is filed as physicochemical. The following applies: pH 7.4, mean ± SD on three independent experiments.
The mark [10] stands for this setting: direct assay on fibrils, mean ± SD of 3 experiments.
Setting [11] is: density of binding sites, Scatchard analysis.

Where two headings read alike, the source gives them in different places.

T2 sequence (P05067 672-713): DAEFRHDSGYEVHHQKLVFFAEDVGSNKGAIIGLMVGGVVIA
T3 sequence (P10636 1-441 isoform P10636-8): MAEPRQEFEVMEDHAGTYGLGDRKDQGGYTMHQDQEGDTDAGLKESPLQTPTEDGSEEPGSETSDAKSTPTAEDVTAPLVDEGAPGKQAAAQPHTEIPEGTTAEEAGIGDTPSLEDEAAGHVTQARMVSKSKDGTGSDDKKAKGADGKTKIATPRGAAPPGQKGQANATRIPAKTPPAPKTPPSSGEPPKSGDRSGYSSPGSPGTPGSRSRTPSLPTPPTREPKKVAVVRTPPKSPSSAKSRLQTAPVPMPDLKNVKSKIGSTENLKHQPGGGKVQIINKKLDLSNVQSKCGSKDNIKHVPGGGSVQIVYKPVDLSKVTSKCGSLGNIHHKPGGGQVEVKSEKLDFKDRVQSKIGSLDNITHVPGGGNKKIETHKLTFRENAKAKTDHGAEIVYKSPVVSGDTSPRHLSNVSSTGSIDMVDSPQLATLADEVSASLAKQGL

For `O=C1c2cn(-c3ccc(N4CC[C@@H]([18F])C4)nc3)nc2CN1c1cccnc1` [[^18F] ACI-12589], the Kd on α-syn in MSA tissues was 22 to 30 nM.
As for `[18F]c1ccc2nc(/C=C/c3ccc(N4CCOCC4)cc3)sc2c1` [[^18F]MFSB], the values for the Kd on α-syn fibrils [1], on Aβ fibrils and at tau fibrils were approximately 10 nM, approximately 100 nM and approximately 100 nM, respectively.
For the compound `CN(C)c1ccc(C#Cc2cc3cccnc3[nH]2)cc1` [Compound 43], the results for the dissociation constant (Kd) (on α-syn fibrils [2] (setting [10]); at Aβ1-42 fibrils [4]; in [8] (setting [10])) were 0.53 ± 0.2 nM, 11.8 ± 3 nM and 0.44 ± 0.1 nM, respectively. Also, the “Kd α-Syn” value at α-syn fibrils [2] (setting [10]) is reported as “sub-nanomolar”. Besides, the inhibition constant Ki was 4.7 ± 2 nM at α-syn fibrils [3], 24.4 ± 9 nM on Aβ1-42 fibrils [6] and 4.61 ± 0.2 nM in series [7]. Further, in the series on Aβ1-42 fibrils [5], the “reduction of affinity for Aβ versus α-syn and tau fibrils” value is 20 fold. Moreover, the “Kd Tau” value in series [8] (setting [10]) was “sub-nanomolar”.
`Cc1cc2nc(/C=C/c3ccc(O)c(Br)c3)sc2cc1N(C)CCOCC[18F]` [[^18F]F0502B]: the Kd was approximately 10 nM on α-syn fibrils [1], approximately 100 nM at Aβ fibrils and approximately 100 nM on tau fibrils.
For `CN(CCF)c1ccc(C#Cc2cc3cccnc3[nH]2)cc1` [Compound 45], the “α-syn monomers per 1 compound bound” value at α-syn fibrils [2] (corresponding to Bmax) is recorded as 7 α-syn monomers. In addition, the “Bmax on α-syn fibrils” value on α-syn fibrils [2] (setting [11]) stood at 141.1 ± 45 nmol/µmol α-syn fibrils. In addition, the Kd at α-syn fibrils [2] (setting [10]) came to 2.4 ± 1 nM; at Aβ1-42 fibrils [4], 1.2 ± 1 nM; in [8] (setting [10]) it was 0.97 ± 0.4 nM. In series [9], this compound yielded a pH-dependent lipophilicity (logD) of 2.59 ± 0.141. Besides, the “Aβ monomers per 1 compound bound” value on Aβ1-42 fibrils [4] (corresponding to Bmax) is reported as 600 Aβ monomers. On Aβ1-42 fibrils [4] (setting [11]), the “Bmax on Aβ fibrils” value turned out to be 1.8 ± 0.6 nmol/µmol Aβ fibrils. The “tau monomers per 1 compound bound” value in series [8] (corresponding to Bmax) worked out at 20 tau monomers. Further, the “Bmax on tau fibrils” value in series [8] (setting [11]) is on record as 46.6 ± 5.0 nmol/µmol tau fibrils.
In the case of `O=C1/C(=C\C=C\c2ccc([N+](=O)[O-])cc2)c2ccccc2N1Cc1ccc(OCC[18F])cc1` [[^18F]indolone], on α-syn fibrils [1] (in vitro), the Ki was 10 nM. Also, the “selectivity towards Aβ fibrils” value in the series on Aβ fibrils (α-syn versus Aβ) is recorded as 27 fold. In addition, the “selectivity for α-syn over tau fibrils” value with tau fibrils (α-syn versus tau) is on record as 5 fold.
